Results published in patent publication US8952024B2, “Herbicidal pyrimidone derivatives” (E I du Pont de Nemours and Company, priority 2009, dated 2015).

How the values were obtained:
Format in all cases: in vivo
[1] = test system: Italian ryegrass (Lolium multiflorum); test: Test B pre-/postemergence plant response
Summary of the method: (§1)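 Seeds sown in loam–sand blend were treated preemergence, and plants at 2–18 cm (1- to 4-leaf stage) in peat-based medium were treated postemergence; compounds were formulated in non-phytotoxic solvent with surfactant. After 13–15 days in greenhouse, response was visually rated against controls, 0 (no effect) to 100 (complete control).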

[2] = test system: bermudagrass (Cynodon dactylon); test: Test B pre-/postemergence plant response
Summary of the method: as §1

[3] = test system: blackgrass (Alopecurus myosuroides); test: Test B pre-/postemergence plant response
Summary of the method: as §1

corn (Zea mays) = test: Test B pre-/postemergence plant response
Summary of the method: as §1

[4] = test system: downy bromegrass (Bromus tectorum); test: Test B pre-/postemergence plant response
Summary of the method: as §1

[5] = test system: giant foxtail (Setaria faberii); test: Test B pre-/postemergence plant response
Summary of the method: as §1

[6] = test system: goosegrass (Eleusine indica); test: Test B pre-/postemergence plant response
Summary of the method: as §1

[7] = test system: green foxtail (Setaria viridis); test: Test B pre-/postemergence plant response
Summary of the method: as §1

[8] = test system: johnsongrass (Sorghum halepense); test: Test B pre-/postemergence plant response
Summary of the method: as §1

[9] = test system: morningglory (Ipomoea coccinea); test: Test B pre-/postemergence plant response
Summary of the method: as §1

[10] = test system: pigweed (Amaranthus retroflexus); test: Test B pre-/postemergence plant response
Summary of the method: as §1

[11] = test system: ragweed (common ragweed, Ambrosia elatior); test: Test B pre-/postemergence plant response
Summary of the method: as §1

soybean (Glycine max) = test: Test B pre-/postemergence plant response
Summary of the method: as §1

[12] = test system: velvetleaf (Abutilon theophrasti); test: Test B pre-/postemergence plant response
Summary of the method: as §1

[13] = test system: wheat (Triticum aestivum); test: Test B pre-/postemergence plant response
Summary of the method: as §1

[14] = test system: canarygrass (Phalaris minor); test: Test B postemergence plant response
Summary of the method: (§2)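 Visual ratings from 0 (no effect) to 100 (complete control), made against controls 13–15 days after treatment, kept in a greenhouse. Compounds were applied postemergence to potted plants at the 1- to 4-leaf stage (2–18 cm).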

[15] = test system: chickweed (Stellaria media); test: Test B postemergence plant response
Summary of the method: as §2

[16] = test system: winter barley (Hordeum vulgare); test: Test B postemergence plant response
Summary of the method: as §2

[17] = 31 g ai/ha, postemergence, scale 0 to 100, 0 is no effect, 100 is complete control
[18] = Postemergence, 62 g ai/ha, scale 0 (no effect) to 100 (complete control), 13 to 15 days
[19] = Postemergence, 125 g ai/ha, visual rating after 13 to 15 days, scale 0 (no effect) to 100 (complete control)
[20] = Postemergence, 250 g ai/ha, scale 0 to 100 (0 no effect, 100 complete control)
[21] = Preemergence, 31 g ai/ha, scale 0 to 100 (0 no effect, 100 complete control)
[22] = Preemergence, 62 g ai/ha, scale 0 to 100, 0 no effect, 100 complete control
[23] = Preemergence, 125 g ai/ha, scale 0 to 100, 0 no effect, 100 complete control
[24] = 250 g ai/ha, Preemergence, 0 to 100 scale

Compound: CCCCc1ncc(C(=O)C2=C(O)CCCC2=O)c(=O)n1-c1ccccc1C [Compound 62]
- Plant response rating, Ryegrass, Italian [1, 17]: 0
- Plant response rating, Ryegrass, Italian [1, 18]: 5
- Plant response rating, Ryegrass, Italian [1, 19]: 50
- Plant response rating, Ryegrass, Italian [1, 20]: 50
- Plant response rating, Ryegrass, Italian [1, 21]: 0
- Plant response rating, Ryegrass, Italian [1, 22]: 0
- Plant response rating, Ryegrass, Italian [1, 23]: 0
- Plant response rating, Bermudagrass [2, 24]: 100
- Plant response rating, Bermudagrass [2, 18]: 80
- Plant response rating, Bermudagrass [2, 19]: 85
- Plant response rating, Bermudagrass [2, 20]: 90
- Plant response rating, Bermudagrass [2, 21]: 20
- Plant response rating, Bermudagrass [2, 22]: 75
- Plant response rating, Bermudagrass [2, 23]: 95
- Plant response rating, Blackgrass [3, 17]: 15
- Plant response rating, Blackgrass [3, 24]: 0
- Plant response rating, Blackgrass [3, 18]: 30
- Plant response rating, Blackgrass [3, 19]: 30
- Plant response rating, Blackgrass [3, 20]: 50
- Plant response rating, Blackgrass [3, 21]: 0
- Plant response rating, Blackgrass [3, 22]: 0
- Plant response rating, Blackgrass [3, 23]: 0
- Plant response rating, Corn (corn (Zea mays); [17]): 70
- Plant response rating, Corn (corn (Zea mays); [18]): 70
- Plant response rating, Corn (corn (Zea mays); [19]): 75
- Plant response rating, Corn (corn (Zea mays); [20]): 80
- Plant response rating, Corn (corn (Zea mays); [21]): 0
- Plant response rating, Corn (corn (Zea mays); [23]): 0
- Plant response rating, Bromegrass, Downy [4, 17]: 30
- Plant response rating, Bromegrass, Downy [4, 24]: 0
- Plant response rating, Bromegrass, Downy [4, 18]: 45
- Plant response rating, Bromegrass, Downy [4, 19]: 50
- Plant response rating, Bromegrass, Downy [4, 20]: 50
- Plant response rating, Bromegrass, Downy [4, 21]: 0
- Plant response rating, Bromegrass, Downy [4, 22]: 0
- Plant response rating, Bromegrass, Downy [4, 23]: 0
- Plant response rating, Foxtail, Giant [5, 17]: 55
- Plant response rating, Foxtail, Giant [5, 24]: 20
- Plant response rating, Foxtail, Giant [5, 18]: 65
- Plant response rating, Foxtail, Giant [5, 19]: 75
- Plant response rating, Foxtail, Giant [5, 20]: 80
- Plant response rating, Foxtail, Giant [5, 21]: 0
- Plant response rating, Foxtail, Giant [5, 22]: 0
- Plant response rating, Foxtail, Giant [5, 23]: 20
- Plant response rating, Goosegrass [6, 17]: 65
- Plant response rating, Goosegrass [6, 24]: 98
- Plant response rating, Goosegrass [6, 18]: 65
- Plant response rating, Goosegrass [6, 19]: 65
- Plant response rating, Goosegrass [6, 20]: 75
- Plant response rating, Goosegrass [6, 21]: 15
- Plant response rating, Goosegrass [6, 22]: 95
- Plant response rating, Goosegrass [6, 23]: 98
- Plant response rating, Foxtail, Green [7, 17]: 40
- Plant response rating, Foxtail, Green [7, 24]: 10
- Plant response rating, Foxtail, Green [7, 18]: 70
- Plant response rating, Foxtail, Green [7, 19]: 80
- Plant response rating, Foxtail, Green [7, 20]: 85
- Plant response rating, Foxtail, Green [7, 21]: 0
- Plant response rating, Foxtail, Green [7, 22]: 0
- Plant response rating, Foxtail, Green [7, 23]: 10
- Plant response rating, Johnsongrass [8, 17]: 0
- Plant response rating, Johnsongrass [8, 18]: 0
- Plant response rating, Johnsongrass [8, 19]: 0
- Plant response rating, Johnsongrass [8, 20]: 10
- Plant response rating, Johnsongrass [8, 21]: 0
- Plant response rating, Johnsongrass [8, 22]: 0
- Plant response rating, Johnsongrass [8, 23]: 0
- Plant response rating, Morningglory [9, 18]: 15
- Plant response rating, Morningglory [9, 19]: 75
- Plant response rating, Morningglory [9, 20]: 75
- Plant response rating, Morningglory [9, 21]: 0
- Plant response rating, Morningglory [9, 22]: 0
- Plant response rating, Morningglory [9, 23]: 0
- Plant response rating, Pigweed [10, 17]: 98
- Plant response rating, Pigweed [10, 18]: 98
- Plant response rating, Pigweed [10, 19]: 100
- Plant response rating, Pigweed [10, 20]: 100
- Plant response rating, Pigweed [10, 21]: 45
- Plant response rating, Pigweed [10, 22]: 98
- Plant response rating, Pigweed [10, 23]: 100
- Plant response rating, Ragweed [11, 17]: 70
- Plant response rating, Ragweed [11, 18]: 75
- Plant response rating, Ragweed [11, 19]: 75
- Plant response rating, Ragweed [11, 20]: 80
- Plant response rating, Ragweed [11, 21]: 0
- Plant response rating, Ragweed [11, 22]: 20
- Plant response rating, Ragweed [11, 23]: 45
- Plant response rating, Soybean (soybean (Glycine max); [17]): 75
- Plant response rating, Soybean (soybean (Glycine max); [18]): 80
- Plant response rating, Soybean (soybean (Glycine max); [19]): 90
- Plant response rating, Soybean (soybean (Glycine max); [20]): 95
- Plant response rating, Soybean (soybean (Glycine max); [21]): 0
- Plant response rating, Soybean (soybean (Glycine max); [22]): 80
- Plant response rating, Soybean (soybean (Glycine max); [23]): 80
- Plant response rating, Velvetleaf [12, 17]: 85
- Plant response rating, Velvetleaf [12, 18]: 95
- Plant response rating, Velvetleaf [12, 19]: 95
- Plant response rating, Velvetleaf [12, 20]: 100
- Plant response rating, Velvetleaf [12, 21]: 75
- Plant response rating, Velvetleaf [12, 22]: 75
- Plant response rating, Velvetleaf [12, 23]: 95
- Plant response rating, Wheat [13, 17]: 0
- Plant response rating, Wheat [13, 18]: 0
- Plant response rating, Wheat [13, 19]: 5
- Plant response rating, Wheat [13, 20]: 30
- Plant response rating, Wheat [13, 21]: 0
- Plant response rating, Wheat [13, 22]: 0
- Plant response rating, Wheat [13, 23]: 0
- Plant response rating, Canarygrass [14, 17]: 0
- Plant response rating, Canarygrass [14, 18]: 0
- Plant response rating, Canarygrass [14, 19]: 0
- Plant response rating, Canarygrass [14, 20]: 5
- Plant response rating, Chickweed [15, 17]: 70
- Plant response rating, Chickweed [15, 18]: 70
- Plant response rating, Chickweed [15, 19]: 75
- Plant response rating, Chickweed [15, 20]: 80
- Plant response rating, Barley [16, 17]: 0
- Plant response rating, Barley [16, 18]: 5
- Plant response rating, Barley [16, 19]: 5
- Plant response rating, Barley [16, 20]: 30
